Values quoted from earlier work, collected in patent publication US20110311589A1 (priority 2008, published 2011).

Tested on: helminthiasis
Settings: in vivo

SMILES: c1ccc([C@H]2CN3CCSC3=N2)cc1 [Levamisole]
- Dosage level at which particularly effective as anthelmintic: approximately 7.5 mg per kg of animal body weight
